Patent publication US20220274973A1, “Methods And Compositions For Treating Sickle Cell Disease With A Ferroportin Inhibitor (VIT-2763)” (Vifor (International) AG, priority 2019, published 2022)

Assay: Rodent PK studies, oral dosing
Format: in vivo

O=C(NCc1ncccc1F)c1coc(CCNCCc2nc3ccccc3[nH]2)n1 [Compound 127]
systemic availability: systemically available
